One compound from EPA's ToxValDB 9.5 (doi:10.2903/j.efsa.2006.89r) can be followed below.

Values after ≈ are worked out from the molar mass of the structure shown.

One series has as its system Canidae. The note with it: oral, Dog Other, clinical signs.
In the next series the test system is Daphnia magna. The note with it: acute; duration: 48 hours; mortality.
Another series relates to Anas platyrhynchos. The note with it: oral, mortality.
Another series relates to Colinus virginianus. The conditions noted are these: reproduction developmental.
Another series has as its system Lepomis macrochirus. The note with it: acute; duration: 96 hours; mortality.
For the next series, the system named is Apis mellifera. The note with it: acute; duration: 48 hours; dermal; mortality.
The subject of the next series is Bibionidae. The note with it: chronic/long-term; duration: 28 days.

For the compound `CCOC(=O)CCN(SN(C)C(=O)Oc1cccc2c1OC(C)(C)C2)C(C)C` [Benfuracarb], the NOAEL (commonly the highest tested level that showed no adverse finding) in the series on Canidae (chronic, duration: 2 years) turned out to be 2.5 mg/kg-day; in the series with Canidae (chronic, duration: 6 months), 2.5 mg/kg-day; with Canidae (subchronic, duration: 13 weeks), 0.625 mg/kg-day; in the series on Rattus norvegicus (reproduction developmental, reproduction), 1.2 mg/kg-day; in the series with Rattus norvegicus (short-term, duration: 28 days, clinical chemistry) it was 1.8 mg/kg-day. Further, the LC50 in the series with Daphnia magna turned out to be 0.0099 µg/mL (≈ 0.0241 µM); in the series on Anas platyrhynchos (short-term, feed), 15 mg/kg-day; in the series with Lepomis macrochirus, 0.017 µg/mL (≈ 0.0414 µM). Also, the LD50 in the series on Anas platyrhynchos (acute, unspecified) amounted to 19.8 mg/kg; in the series on Rattus norvegicus (acute, oral, mortality) it was 205 mg/kg; in the series with Apis mellifera it was 0.19 µg/piece. Moreover, the NOEC was 8.93 mg/kg-day with Colinus virginianus and 0.001 mg/L in the series with Bibionidae.
